Data as given in paper PMC11532494 (Nature Communications, 2024).
“And” between values parts separate entries of the source, which are not always exact repeats. Equal entries are not always repeated. Where two headings read alike, the source gives them in different places. No end group written: not given here. *: point of attachment. AMC = Cc1cc(=O)oc2cc(N*)ccc12

What was measured:
VsHdaH (1b) = type: biochemical, Vibrio sp.; details: VKDAC
RsPrpH (1b) = assay: Substrate screening assay (acyl-peptide-AMC); type: biochemical, Rhizorhabdus sp.; details: RsPrpH (1b); for [AMC]: Transform RFU in [AMC]
RwDmhA (1b) = RwDmhA (1b) (Rhizorhabdus wittichii, UniProt A0A067XIQ6); type: biochemical; details: RwDmhA (1b)
KpHdaH (1b) = KpHdaH (1b) (Klebsiella pneumoniae, UniProt A0A377Z5F6); type: biochemical; details: KpHdaH (1b)
BsAcuC (2c) = biological target: T1, BsAcuC (2c) (Bacillus subtilis, UniProt P39067); assay: Substrate screening assay (acyl-peptide-AMC); type: biochemical; details: BsAcuC (2c); for [AMC]: Transform RFU in [AMC]
T1 construct: made in house; host or cells: E. coli BL21 (DE3)
T1 sequence (P39067 1-387): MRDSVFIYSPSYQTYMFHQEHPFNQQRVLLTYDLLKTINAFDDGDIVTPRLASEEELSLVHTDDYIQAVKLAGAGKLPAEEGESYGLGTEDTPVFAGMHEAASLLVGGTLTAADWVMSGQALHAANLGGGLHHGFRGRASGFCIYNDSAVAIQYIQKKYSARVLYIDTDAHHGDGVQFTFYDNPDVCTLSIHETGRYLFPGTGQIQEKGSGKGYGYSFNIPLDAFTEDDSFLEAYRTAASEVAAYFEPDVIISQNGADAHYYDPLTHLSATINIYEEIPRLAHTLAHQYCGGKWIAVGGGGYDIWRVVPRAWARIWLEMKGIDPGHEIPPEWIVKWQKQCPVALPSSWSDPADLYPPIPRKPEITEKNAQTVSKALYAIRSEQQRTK
Procedure: (§1) Experiments with SIRT2 and SIRT5 were supplemented with NAD^+ (500 µM). Thereafter, a solution of trypsin (25 µL, 5.0 mg/mL; final concentration of 2.5 mg/mL) was added, and the development of the assay was allowed to proceed for 90 min at room temperature before fluorescence analysis. […] To this end, a single category is given to all conversions >48% on the heatmap. […] For the H4-derived peptide LGKbio no positive control was available.

VcHdaH (5b) = type: biochemical, Vibrio cholerae; details: VcHdaH (5b); for [AMC]: Transform RFU in [AMC]
PsApaH (4) = PsApaH (4) (Pseudomonas sp. M30-35, UniProt A0A1Y0KY79); type: biochemical; details: PsApaH (4)
Procedure: as §1

LcApaH (3) = LcApaH (3) (Legionella cherrii, UniProt A0A0W0SGS1); type: biochemical
Controls = assay: Substrate screening assay (acyl-peptide-AMC), control enzymes; type: biochemical; details: for [AMC]: Transform RFU in [AMC]
[1] = Transform RFU*2, Controls, Sample 1
[2] = Transform RFU*2, Controls, Sample 2

| Substance | Relative Fluorescene Units (RFU) (VsHdaH (1b); Transform RFU*2, Sample 1) | Relative Fluorescene Units (RFU) (VsHdaH (1b); Transform RFU*2, Sample 2) | Relative Fluorescene Units (RFU) (VsHdaH (1b); Sample 1) | Relative Fluorescene Units (RFU) (VsHdaH (1b); Sample 2) | Relative Fluorescene Units (RFU) (RsPrpH (1b); Sample 1) | Relative Fluorescene Units (RFU) (RsPrpH (1b); Sample 2) | [AMC] (RsPrpH (1b); Sample 1) [nM] | [AMC] (RsPrpH (1b); Sample 2) [nM] | Relative Fluorescene Units (RFU) (RsPrpH (1b); Transform RFU*2, Sample 1) | Relative Fluorescene Units (RFU) (RsPrpH (1b); Transform RFU*2, Sample 2) | Relative Fluorescene Units (RFU) (RwDmhA (1b); Sample 1) | Relative Fluorescene Units (RFU) (RwDmhA (1b); Sample 2) | Relative Fluorescene Units (RFU) (RwDmhA (1b); Transform RFU*2, Sample 1) | Relative Fluorescene Units (RFU) (RwDmhA (1b); Transform RFU*2, Sample 2) | Relative Fluorescene Units (RFU) (KpHdaH (1b); Sample 1) | Relative Fluorescene Units (RFU) (KpHdaH (1b); Sample 2) | Relative Fluorescene Units (RFU) (KpHdaH (1b); Transform RFU*2, Sample 1) | Relative Fluorescene Units (RFU) (KpHdaH (1b); Transform RFU*2, Sample 2) | Relative Fluorescene Units (RFU) (BsAcuC (2c); Sample 1) | Relative Fluorescene Units (RFU) (BsAcuC (2c); Sample 2) | other results |
| --- | --- | --- | --- | --- | --- | --- | --- | --- | --- | --- | --- | --- | --- | --- | --- | --- | --- | --- | --- | --- | --- |
| QPKKdec (QPKK-{AMC}; not fully specified (residue 4); printed as QPKKdec; also: decanoyl-lysine (which Lys not given here); UniProt P04637 317-320, looked up, fragment) | 126 | 202 | 63 | 101 | 32 | 43 | 31.25 | 41.99 | 64 | 86 | 19 | 47 | 38 | 94 | 50 | 66 | 100 | 132 | 1598 | 1156 | [AMC] (BsAcuC (2c); Sample 1): 1560.55 nM; [AMC] (BsAcuC (2c); Sample 2): 1128.91 nM; Relative Fluorescene Units (RFU) (BsAcuC (2c); Transform RFU*2, Sample 1): 3196 RFU; Relative Fluorescene Units (RFU) (BsAcuC (2c); Transform RFU*2, Sample 2): 2312 RFU; [AMC] (VcHdaH (5b); Sample 1): 77.15 nM; [AMC] (VcHdaH (5b); Sample 2): 27.34 nM; Relative Fluorescene Units (RFU) (VcHdaH (5b); Transform RFU*2, Sample 1): 158 RFU; Relative Fluorescene Units (RFU) (VcHdaH (5b); Transform RFU*2, Sample 2): 56 RFU; Relative Fluorescene Units (RFU) (VcHdaH (5b); Sample 1): 79 RFU; Relative Fluorescene Units (RFU) (VcHdaH (5b); Sample 2): 28 RFU; Relative Fluorescene Units (RFU) (PsApaH (4); Sample 1): 94 RFU; Relative Fluorescene Units (RFU) (PsApaH (4); Sample 2): 100 RFU; Relative Fluorescene Units (RFU) (PsApaH (4); Transform RFU*2, Sample 1): 188 RFU; Relative Fluorescene Units (RFU) (PsApaH (4); Transform RFU*2, Sample 2): 200 RFU; [AMC] (LcApaH (3)): 143.55 nM and 182.62 nM; Relative Fluorescene Units (RFU) (Controls): 14990 RFU and 17431 RFU; [AMC] (Controls; Controls, Sample 1): 14.63867 µM; [AMC] (Controls; Controls, Sample 2): 17.02246 µM; Relative Fluorescene Units (RFU) (Controls; [1]): 29980 RFU; Relative Fluorescene Units (RFU) (Controls; [2]): 34862 RFU |
| QPKKmyr (QPKK-{AMC}; not fully specified (residue 4); printed as QPKKmyr; also: myristoyl-lysine (which Lys not given here); UniProt P04637 317-320, looked up, fragment) | 354 | -1178 | 177 | -589 | -108 | -824 | -105.47 | -804.69 | -216 | -1648 | -346 | -865 | -692 | -1730 | 178 | 116 | 356 | 232 | 313 | 767 | [AMC] (BsAcuC (2c); Sample 1): 305.66 nM; [AMC] (BsAcuC (2c); Sample 2): 749.02 nM; Relative Fluorescene Units (RFU) (BsAcuC (2c); Transform RFU*2, Sample 1): 626 RFU; Relative Fluorescene Units (RFU) (BsAcuC (2c); Transform RFU*2, Sample 2): 1534 RFU; [AMC] (VcHdaH (5b); Sample 1): -96.68 nM; [AMC] (VcHdaH (5b); Sample 2): -269.53 nM; Relative Fluorescene Units (RFU) (VcHdaH (5b); Transform RFU*2, Sample 1): -198 RFU; Relative Fluorescene Units (RFU) (VcHdaH (5b); Transform RFU*2, Sample 2): -552 RFU; Relative Fluorescene Units (RFU) (VcHdaH (5b); Sample 1): -99 RFU; Relative Fluorescene Units (RFU) (VcHdaH (5b); Sample 2): -276 RFU; Relative Fluorescene Units (RFU) (PsApaH (4); Sample 1): 40 RFU; Relative Fluorescene Units (RFU) (PsApaH (4); Sample 2): 113 RFU; Relative Fluorescene Units (RFU) (PsApaH (4); Transform RFU*2, Sample 1): 80 RFU; Relative Fluorescene Units (RFU) (PsApaH (4); Transform RFU*2, Sample 2): 226 RFU; Relative Fluorescene Units (RFU) (Controls): 6155 RFU and 7393 RFU; [AMC] (Controls; Controls, Sample 1): 6.01074 µM; [AMC] (Controls; Controls, Sample 2): 7.21973 µM; Relative Fluorescene Units (RFU) (Controls; [1]): 12310 RFU; Relative Fluorescene Units (RFU) (Controls; [2]): 14786 RFU |
| QPKKoct (QPKK-{AMC}; not fully specified (residue 4); printed as QPKKoct; also: octanoyl-lysine (which Lys not given here); UniProt P04637 317-320, looked up, fragment) | 248 | 194 | 124 | 97 | 4 | 72 | 3.91 | 70.31 | 8 | 144 | 53 | 75 | 106 | 150 | -13 | -43 | -26 | -86 | 2401 | 1622 | [AMC] (BsAcuC (2c); Sample 1): 2344.73 nM; [AMC] (BsAcuC (2c); Sample 2): 1583.98 nM; Relative Fluorescene Units (RFU) (BsAcuC (2c); Transform RFU*2, Sample 1): 4802 RFU; Relative Fluorescene Units (RFU) (BsAcuC (2c); Transform RFU*2, Sample 2): 3244 RFU; [AMC] (VcHdaH (5b); Sample 1): 67.38 nM; [AMC] (VcHdaH (5b); Sample 2): 71.29 nM; Relative Fluorescene Units (RFU) (VcHdaH (5b); Transform RFU*2, Sample 1): 138 RFU; Relative Fluorescene Units (RFU) (VcHdaH (5b); Transform RFU*2, Sample 2): 146 RFU; Relative Fluorescene Units (RFU) (VcHdaH (5b); Sample 1): 69 RFU; Relative Fluorescene Units (RFU) (VcHdaH (5b); Sample 2): 73 RFU; Relative Fluorescene Units (RFU) (PsApaH (4); Sample 1): 88 RFU; Relative Fluorescene Units (RFU) (PsApaH (4); Sample 2): 73 RFU; Relative Fluorescene Units (RFU) (PsApaH (4); Transform RFU*2, Sample 1): 176 RFU; Relative Fluorescene Units (RFU) (Controls): 6579 RFU and 10102 RFU; [AMC] (Controls; Controls, Sample 1): 6.4248 µM; [AMC] (Controls; Controls, Sample 2): 9.86523 µM; Relative Fluorescene Units (RFU) (Controls; [1]): 13158 RFU; Relative Fluorescene Units (RFU) (Controls; [2]): 20204 RFU |
